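Each compound was tested at five concentrations against cells in 96-well plates for 48 hours. TGI marks complete inhibition of growth.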
Columns and labels:
Experiment in all cases: NCI anticancer screen, dose series, 48 h
[1] = system: SF-268 CNS
[2] = system: UACC-257 melanoma
[3] = system: KM12 colon
[4] = system: MCF7 breast
[5] = system: LOX IMVI melanoma
[6] = system: 786-0 renal
[7] = system: SNB-19 CNS
[8] = system: OVCAR-3 ovarian
[9] = system: HCT-116 colon
[10] = system: NCI-H522 lung
[11] = system: ACHN renal
[12] = system: HOP-92 NSCLC

COc1ccc(/C=C2/CSCC3=C2NC(=S)NC3c2ccc(OC)c(OC)c2OC)c(OC)c1OC (configuration not stated)
TGI [1]: > 100 µM
TGI [2]: 67.7 µM
TGI [3]: 34.1 µM
TGI [4]: > 100 µM
TGI [5]: 58.3 µM
TGI [6]: 40.7 µM
TGI [7]: 51.5 µM
TGI [8]: > 100 µM
TGI [9]: 60 µM
TGI [10]: 97.5 µM
TGI [11]: 52.5 µM

N#CCc1c(-c2ccccc2)n(S(=O)(=O)c2ccccc2)c2ccccc12
TGI [1]: > 100 µM
TGI [2]: > 100 µM
TGI [3]: > 100 µM
TGI [6]: > 100 µM
TGI [12]: > 100 µM
TGI [7]: > 100 µM
TGI [8]: > 100 µM
TGI [9]: > 100 µM
TGI [11]: > 100 µM

CCOC(=O)CC(c1ccccc1)C(C)(C(=O)OCC)C(=O)OCC (configuration not stated)
TGI [1]: > 100 µM
TGI [2]: > 100 µM
TGI [3]: > 100 µM
TGI [4]: > 100 µM
TGI [5]: > 100 µM
TGI [6]: > 100 µM
TGI [7]: > 100 µM
TGI [9]: > 100 µM
TGI [10]: > 100 µM
TGI [11]: > 100 µM

CCOC(=O)C(NC(=O)c1ccccc1)(Nc1ccc(S(=O)(=O)Nc2ncccn2)cc1)C(F)(F)F (configuration not stated)
TGI [1]: > 100 µM
TGI [2]: > 100 µM
TGI [3]: > 100 µM
TGI [4]: > 100 µM
TGI [5]: > 100 µM
TGI [6]: > 100 µM
TGI [12]: > 100 µM
TGI [7]: > 100 µM
TGI [8]: > 100 µM
TGI [9]: > 100 µM
TGI [11]: > 100 µM

Clc1cccc(-c2sc(-c3ccsc3)cc2Cc2ccsc2)c1
TGI [1]: > 10 µM
TGI [2]: > 10 µM
TGI [3]: > 10 µM
TGI [4]: > 10 µM
TGI [5]: > 10 µM
TGI [6]: > 10 µM
TGI [12]: > 10 µM

COC(=O)N1CC(=O)C(C(=O)NC23CC4CC(CC(C4)C2)C3)C1 (configuration not stated)
TGI [1]: > 100 µM
TGI [2]: > 100 µM
TGI [3]: > 100 µM
TGI [4]: > 100 µM
TGI [6]: > 100 µM
TGI [12]: > 100 µM
TGI [7]: > 100 µM
TGI [8]: > 100 µM
TGI [9]: > 100 µM
TGI [10]: > 100 µM
TGI [11]: > 100 µM

O=C(/C=C\c1cccc2ccccc12)c1ccc(F)cc1
TGI [1]: 30.8 µM
TGI [2]: 34.7 µM
TGI [3]: 28.8 µM
TGI [6]: 32.1 µM
TGI [12]: 39.8 µM
TGI [7]: 31 µM
TGI [8]: 30.9 µM
TGI [9]: 26.8 µM
TGI [10]: 40.2 µM
TGI [11]: 30.8 µM

CC(=O)OC(CC1(C)C(C)CCC23COC(=O)C2=CCCC31)c1ccoc1 (configuration not stated)
TGI [1]: 36.2 µM
TGI [2]: 72.5 µM
TGI [3]: 67.4 µM
TGI [5]: 47.9 µM
TGI [6]: 32.2 µM
TGI [12]: 52.5 µM
TGI [7]: 82.9 µM
TGI [8]: 46.1 µM
TGI [9]: 61.6 µM
TGI [10]: 35.6 µM
TGI [11]: > 100 µM

NC(N)=NS(=O)(=O)c1ccc(N/N=C2/CCOC2=O)cc1
TGI [1]: > 100 µM
TGI [2]: > 100 µM
TGI [3]: > 100 µM
TGI [4]: > 100 µM
TGI [5]: > 100 µM
TGI [6]: > 100 µM
TGI [12]: > 100 µM
TGI [7]: > 100 µM
TGI [8]: > 100 µM
TGI [9]: > 100 µM
TGI [11]: > 100 µM

O=C/C1=C/C2=Cc3ccccc3C=C(/C=C(/C=O)C1)C2
TGI [1]: > 100 µM
TGI [2]: > 100 µM
TGI [3]: > 100 µM
TGI [5]: > 100 µM
TGI [6]: > 100 µM
TGI [12]: 87.9 µM
TGI [7]: > 100 µM
TGI [8]: 98.4 µM
TGI [9]: 48.3 µM
TGI [10]: > 100 µM
TGI [11]: > 100 µM
